Test results: patent US5399566A, “Pyridine derivatives having angiotensin II antagonism” (Meiji Seika Kabushiki Kaisha, priority 1990, dated 1995)

Experiments:
[1] = tested on: electric shock induced amnesia mice; test: Cognitive enhancing effect, step through passive avoidance in electric shock induced amnesia mice; assay type: in vivo, ddY strain male mice; details: oral, 10 μg/kg
Method: In order to examine the influence of the compounds on the learning and memory facilitating, an amnesia model with use of electric shock in a step through type passive avoidance box (PA-M5 model; OBARA IKA-SANGYOSHA) in accordance with the method described by C. Giurgea et al. (Progressive of Neuropsychopharmacology, 1, 235-247 (1977)) was used.
The subject compounds were orally administered at a dose of 1 ng/kg -1 mg/kg in the form of a homogeneous suspension in a 0.5% aqueous carboxymethylcellulose solution to ddY strain male mice (4-5 weeks) 1 hour before acquisition-trial and 1 hour before retrievaltrial. The animal was first placed in the light chamber, and the door at the boundary between the light and dark chamber was opened after 30 seconds. At the same time as the animal stepped into the dark chamber, electric footshock (40 V) was delivered to the floor of the dark chamber so that the animal acquired avoidance response (acquisition-trial). […] That is, the animal was placed again in the light chamber, the door was opened after 30 seconds, and the latency of the animal into the dark -chamber was measured for up to 600 seconds, so that the time was compared with that of the solvent administered group in which amnesia had been caused by electric shock.

ddY male mice = test: Antianxiety effect, light and dark box; assay type: in vivo; details: oral, 0.1 μg/kg, 1 hour
Method: (§1) The subject compounds were examined on their antianxiety effect with the light and dark box according to the method described by B. Costall et al. (Pharmacology Biochemistry and Behavior, 32, 777-785, 1989) and with the elevated plus maze by S. Pell et al. (Journal of Neuroscience Methods, 14, 149-167, 1985).
The subject compounds were administered orally to ddY male mice (4-5 weeks old) at a dose of 0.1-1000 μg/kg. After 1 hour they were placed in the light chamber of the light and dark box, and after 10 seconds the door at the boundary between the light chamber and the dark chamber was opened. The behavior of the animals in the light and dark box under a sound-proof condition for four minutes was observed and examined by comparing the measurements of latency to the dark chamber, shuttling between the light and dark chambers and duration in the light chamber with those in the group to which only a solvent was administered. The subject compounds were orally administered in the form of a homogeneous suspension or solution in a 0.5% aqueous carboxymethyl cellulose solution.

Renal hypertensive rats = test: Hypotensive effect in renal hypertensive rats (RHR); assay type: in vivo, Spraque-Dawley (SD) male rats; details: oral, 3 mg/kg
Method: Renal hypertensive rats, a model of high-renin hypertension, were prepared according to the method of J. L. Cangiano et al. (Journal of Pharmacology and Experimental Therapeutics, 208, 310-313, 1979). That is, the experiment was conducted with Spraque-Dawley (SD) male rats (250-300 g), which were ligated the left renal artery with a thread under the anesthetic condition, so that the systolic blood pressure was increased more than 150 mmHg on 1 week after the operation. The subject compounds were orally administered in the form of a homogeneous suspension in a 0.5% aqueous carboxymethylcellulose solution, and a mean blood pressure was measured in the same manner as in the paragraph 1-2. Heart rate was counted with a cardiotachmeter triggered by the arterial pulse.

[2] = tested on: spontaneously hypertensive rats; test: Hypotensive effect in spontaneously hypertensive rats (SHR); assay type: in vivo, male spontaneously hypertensive rats; details: oral, 10 mg/kg
Method: The subject compounds were administered orally in the same manner as in the paragraph 1-3 to male spontaneously hypertensive rats (28 weeks old, Charles-River Co.), which were measured mean blood pressure and heart rate.

[3] = Toxicity test, oral, mice; details: mouse, in vivo, ddY male mice 5 weeks old
Method: Several compounds of the present invention represented by the general formula (I) were administered orally by compulsion to ddY male mice of 5 weeks old (average weight, ca. 20 g).

[4] = target: T1, contraction response to angiotensin II at the isolated thoracic aorta of rabbit (Oryctolagus cuniculus, UniProt P34976); test: In vitro angiotensin II antagonism, isolated rabbit thoracic aorta (Schild pA2); assay type: cell-based; details: Schild plot
T1 construct: A strip of thoracic aorta of a male rabbit (2.5-3.0 kg) was prepared by the usual method; from tissue; host or cells: rabbit thoracic aorta strip
T1 sequence (P34976 1-359): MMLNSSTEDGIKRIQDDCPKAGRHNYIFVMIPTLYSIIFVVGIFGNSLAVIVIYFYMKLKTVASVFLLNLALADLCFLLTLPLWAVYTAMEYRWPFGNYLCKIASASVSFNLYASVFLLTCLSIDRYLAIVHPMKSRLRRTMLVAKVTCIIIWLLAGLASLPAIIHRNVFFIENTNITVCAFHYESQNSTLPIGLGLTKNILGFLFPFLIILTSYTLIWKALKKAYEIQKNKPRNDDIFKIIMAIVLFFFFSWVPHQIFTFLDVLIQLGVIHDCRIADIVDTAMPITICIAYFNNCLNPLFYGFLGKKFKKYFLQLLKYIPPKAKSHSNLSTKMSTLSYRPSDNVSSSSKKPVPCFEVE
Description: (§2) The angiotensin II antagonistic activities in vitro were compared on the basis of the intensities (pA2 value) of antagonizing the contraction response to angiotensin II at the isolated thoracic aorta of rabbit. The in vivo activities were examined by comparing the inhibitory effects on the hypertensive action by an exogenous angiotensin II in a non-anesthetized rat and the hypotensive effects of a renal hypertensive rat or a spontaneously hypertensive rat.
A strip of thoracic aorta of a male rabbit (2.5-3.0 kg) was prepared by the usual method and suspended in an organ bath containing well oxygenated Krebs-Henseleit solution at 37° C. The pA2 value was calculated according to the method described by H. O. Schild (British Journal of Pharmacology and Chemotherapeutics, 2, 189-206, 1947). A strip treated with 3-5 doses of a subject compound in an amount of 10^-6 M-10^-10 M and a strip treated with no drug were employed for obtaining a dose-response curve by angiotensin II. Log (dose ratio--1) was calculated from the shift of the dose-response curve of the subject compound, and pA2 value was obtained from the Schild plottings.

[5] = tested on: hypertensive action by angiotensin II; test: Inhibition on the hypertensive action by an exogenous angiotensin II in conscious rats; assay type: in vivo, Spraque-Dawley (SD) male rats; details: oral; for ED50: Rattus norvegicus, within 6 hours after administration, read-out: ED50 (dose required for inhibiting the hypertensive action by angiotensin II to the extent of 50%); for inhibitory effect on the hypertensive action by angiotensin II: dose of 1 mg/kg or less, angiotensin II 0.1 μg/kg i.v.
Description: as §2
Anesthetized Spraque-Dawley (SD) male rats were cannulated into a femoral artery and a femoral vein and used for the experiment at the time when it has elapsed at least 24 hours after the operation. The hypertensive action caused by angiotensin II (0.1 μg/kg) which has been administered through the vein catheter was measured under conscious and unrestrained condition before and after administration of the compound. The artery catheter was connected to a pressure transducer to measure a mean blood pressure, and the subject compounds were orally administered in the form of a homogeneous suspension in a 0.5% aqueous carboxymethyl cellulose solution.
The intensities of the inhibitory effects within 6 hours after administration of the compound were examined on the basis of the dose of the compound required for inhibiting the hypertensive action by angiotensin II to the extent of 50% (ED50 values).

SD female rats = details: rat, in vivo, po, 100 mg/kg
Fisher 344 male rats = test: Antianxiety effect, elevated plus maze; assay type: in vivo; details: oral, 1 μg/kg, 1 hour
Method: as §1
To Fisher 344 male rats (5-6 weeks old), the subject compounds were orally administered at a dose of 1-100 μg/kg in the form of a homogeneous suspension or solution in a 0.5% aqueous carboxymethyl cellulose solution. Among the four arms of the elevated plus maze (a device in which four arms are intersected crosswise and connected together at a height of 50 cm from the floor), the two arms with side walls are referred to as closed arms and the two arms without side walls are referred to as open arms. […] As the indices of the behavior, the latency until stepped out from the arm first placed to the other arm and the durations in the respective arms were measured, and the other behaviors were recorded. Diazepam was used as a control agent, and the drug administered group and the solvent administered group (group to which a 0.5% aqueous carboxymethyl cellulose solution was administered)were compared for the behaviors.

## COc1c(OCc2ccc(-c3ccccc3-c3nnn[nH]3)cc2)cc(C)nc1C [Example 11, 3-methoxy-2,6-dimethyl-4-[2'-(tetrazol-5-yl)biphenyl-4-yl]methoxypyridine]
[1]
  latency into the dark chamber (passive avoidance response): significant prolongation of the latency into the dark chamber
ddY male mice
  duration in the light chamber: increased
  latency to the dark chamber: increased
Renal hypertensive rats
  depression of blood pressure: 20-26%
  hypotensive effect: significant long-lasting hypotensive effect
[2]
  depression of blood pressure: approximately 20%
  hypotensive effect: significant hypotensive effect
[3]
  LD50: > 1000 mg/kg
[4]
  Kb: 6.31 nM
[5]
  ED50: 0.54 mg/kg
  inhibitory effect on the hypertensive action by angiotensin II: significant inhibitory effects

## CCOC(=O)c1c(OCc2ccc(-c3ccccc3-c3nnn[nH]3)cc2)cc(C)nc1CC [Example 45, 3-ethoxycarbonyl-2-ethyl-6-methyl-4-[2'-(tetrazol-5-yl)-biphenyl-4-yl]methoxypyridine]
SD female rats
  symptom of toxicity: no symptom of toxicity was observed
Fisher 344 male rats
  duration out of the closed arm: increasing tendency
  transitions: significant increase
Renal hypertensive rats
  depression of blood pressure: 20-26%
  hypotensive effect: significant long-lasting hypotensive effect
[2]
  depression of blood pressure: approximately 20%
  hypotensive effect: significant hypotensive effect
[3]
  LD50: > 1000 mg/kg
[4]
  Kb: 6.76 nM
[5]
  ED50: 0.52 mg/kg
  inhibitory effect on the hypertensive action by angiotensin II: significant inhibitory effects
